Legend:
[1] = tested on: lymphoma cell lines; assay: ADCC assay (PBMC effector cells); assay type: cell-based; settings: PBMCs pre-treated 0.1 μM TAK-981 17-24 h and/or 1 nM tafasitamab; E:T 10:1; 2 h; FIG. 1
Protocol: A panel of 9 aggressive lymphoma cell lines was analyzed (7 DLBCL and 2 Burkitt lymphoma). OCI-LY10 and TMD8 cells were cultured in Iscove's modified Dulbecco medium supplemented with either 20% human plasma or 10% FCS. All other cell lines were cultured in RPMI medium (Gibco) supplemented with 10%-20% FCS (Sigma). Cells were cultured at 37° C. in 5% CO2.
(§1) Whole Blood was collected from healthy volunteers. PBMCs were isolated via density-gradient centrifugation using Biocoll (Biochrome) or Pancoll (PAN Biotech) separating solution and SepMate tubes (STEMCELL Technologies).
PBMC effector cells were treated with 0.1 μM TAK-981 or DMSO as negative control for 17-24 hours. Target cells were stained with 1 μM carboxyfluorescein succinimidyl ester (CFSE). Subsequently, target cells were incubated with pre-treated PBMCs at an effector to target (E:T) ratio of 10:1 in the presence or absence of 1 nM tafasitamab for 2 hours at 37° C. and 5% CO2. Dead cells were stained with 1 μg/ml 4′,6-diamidino-2-phenylindole (DAPI) and flow cytometry was used to determine cytotoxicity against target cells: Cells were gated for viable (DAPI negative) and dead target cells (DAPI positive). The specific cytotoxicity was defined as the percentages of dead target cells in the treated sample substracted by the percentage of dead target cells in the control sample without antibody.

[2] = tested on: NK cells co-cultured with DAUDI cells; assay: Degranulation of NK cells (CD107a); assay type: cell-based, human; settings: PBMCs pre-treated 1 μM TAK-981 24 h and/or 0.1 or 10 nM tafasitamab; E:T 10:1; 3 h; vs DMSO control or mono treatments; FIG. 2
Protocol: as §1
Freshly isolated PBMCs were first pre-treated with 1 μM TAK-981 or DMSO-containing buffer for 24 hours. PBMCs with or without TAK-981 pre-treatment were co-cultured with DAUDI cells at an E:T ratio of 10:1 and incubated with 0.1 or 10 nM tafasitamab or no antibody at 37° C. and 5% CO2. After 1 hour, 2 μM Monensin was added to each well and CD107a expression was analyzed by flow cytometry after a total incubation time of 3 hours.

[3] = tested on: WSU-DLCL2 human xenograft tumor model; assay: Study 3: WSU-DLCL2 human xenograft tumor model; assay type: in vivo, CB17 SCID mice; settings: for GRI % / Tumor volume on Day 21 (±SEM): WSU-DLCL2; for GRI %: Day 21, vs vehicle; for Tumor volume on Day 21 (±SEM): in mm³ (unit assumed); for tumor growth inhibition as single agents (in words): WSU-DLCL2 human DLBCL mouse model
Protocol: The differences in the tumor growth trends over time between pairs of treatment groups were assessed by fitting each animal's data to a simple exponential growth model and comparing the mean growth rates of the two groups, as described in more detail below. The difference in the growth rates was summarized by the GRI, which is the reduction in growth rate experienced by the treatment group relative to that of the reference group, expressed as a fraction of the vehicle growth rate.
A GRI greater than 100% is interpreted as tumor regression when the vehicle group is the same as the reference group. A negative value of the GRI means that the tumors in the treatment group grew faster than the tumors in the reference group. Statistical significance was determined using an unpaired t-test.
Low tumor volumes can cause problems with the data analysis, so all measurements below 25 cubic mm (including 0 values) were excluded from the analysis. After this exclusion step, the tumor volume was assumed to follow an exponential growth model. […]
WSU-DLCL2 is a human DLBCL cell line. A WSU-DLCL2 human xenograft tumor model was generated by subcutaneous inoculation in the flank of 8 week old female CB17 SCID mice (Charles River Laboratories, Wilmington, MA) with 4.0×10^6 WSU-DLCL2 cells (cell suspension in 0.1 mL RPMI 1640 media). When the mean tumor volume reached approximately 200 mm^3, the animals were randomized into one vehicle control group and seven treatment groups (n=7/group) as described in Table 3a. Mice were then dosed with 20% HPβCD or Compound I-263a and/or tafasitamab over a 3 week period. In the combination treatment groups, I-263a was administered first, followed immediately by the administration of tafasitamab. Tumor growth and body weight were measured twice per week during the treatment and post-treatment periods, and mice were humanely euthanized once they had reached their humane endpoint. Tumors were measured using Vernier calipers and volumes were calculated using standard equation: V=W^2×L/2, where V=volume, W=width, and L=length for the tumor.
A 0.8625 mg/mL stock solution of I-263a was formulated weekly in 20% HPβCD and administered intravenously (IV) based on an average body weight using a 0.2 mL dosing volume. Final dose of I-263a received was 7.5 mg/kg. I-263a was administered on a BIW schedule for 3 weeks (Days 1, 4, 8, 11, 15, 18). Tafasitamab was formulated prior to each injection in 0.9% saline at 0.6 mg/mL and 2.0 mg/mL. Final dose of tafasitamab received was 3, 10, or 20 mg/kg based on average body weight. Tafasitamab was administered intraperitoneally (IP) on a BIW schedule for 3 weeks (Days 1, 4, 8, 11, 15, 18). For the 3 mg/kg dose level, 0.1 mL of the 0.6 mg/mL solution was administered. For the 10 mg/kg and 20 mg/kg dose levels, dosing volumes of the 2.0 mg/mL solution were 0.1 mL and 0.2 mL, respectively. The vehicle group received IV treatment with the vehicle for I-263a (20% HPβCD) on a BIW schedule for three weeks (Days 1, 4, 8, 11, 15, 18).
Statistical analysis for growth rate inhibition was performed on data up to and including Day 21.

[4] = tested on: RAMOS; assay: ADCP assay (macrophages); assay type: cell-based; settings: macrophages pre-treated 1 μM TAK-981 and/or 1 nM tafasitamab, E:T 2:1, 3 h, FIG. 4
Protocol: (§2) Monocytes were positively selected from PBMCs using CD14 MicroBeads on a MACS LS column according to the manufacturer's protocol (Miltenyi Biotec). Isoltaed cells were re-suspended in RPMI medium supplemented with 10% FCS and 1× GlutaMax. Monocytes were maturated into macrophages in T-flasks for 6 to 7 days in the presence of 50 ng/ml M-CSF.
(§3) After maturation, macrophages were stained with 2 μM CFSE and detached using 5 mM EDTA and scraping. After washing with PBS, macrophages were re-suspended in medium containing either DMSO (negative control) or 1 μM TAK-981 and allowed to re-attach in 96 well culture plates for 16-24 hours. Target cells were stained using the CellTrace Violet Cell Proliferation Kit (Invitrogen) and co-cultured with pre-treated macrophages in the presence or absence of 1 nM tafasitamab for 3 hours at an E:T ratio of 2:1. The cells were detached using 0.05% Trypsin-EDTA and transferred into multi-well flow cytometry plates. Using flow cytometry the percentage of phagocytosis was evaluated, defined as the percentage of double positive cells out of all CellTrace Violet positive cells.

[5] = tested on: DAUDI; assay: ADCP assay (macrophages); assay type: cell-based, human; settings: macrophages pre-treated 1 μM TAK-981 and/or 1 nM tafasitamab, E:T 2:1, 3 h, FIG. 4
Protocol: as §2, §3

| Molecule | Specific killing of lymphoma cell lines (specific cytotoxicity) [1] | percentage of CD107+ NK cells [2] | GRI % ([3]; I-263a 7.5 mg/kg IV BIW, 7.5 mg/kg) [%] | GRI % ([3]; I-263a 7.5 mg/kg IV BIW, listed as TAK-981) | Tumor volume on Day 21 (±SEM) ([3]; I-263a 7.5 mg/kg IV BIW 3 weeks) | tumor growth inhibition as single agents (in words) [3] | Phagocytosis [4] | Phagocytosis [5] | GRI % ([3]; tafasitamab 3 mg/kg IP BIW) [%] | GRI % ([3]; tafasitamab 10 mg/kg IP BIW) [%] | GRI % ([3]; tafasitamab 10 mg/kg IP BIW, listed as tafasitamab) | GRI % ([3]; tafasitamab 20 mg/kg IP BIW) [%] | GRI % ([3]; tafasitamab 20 mg/kg IP BIW, listed as tafasitamab) | Tumor volume on Day 21 (±SEM) ([3]; tafasitamab 3 mg/kg IP BIW 3 weeks) | Tumor volume on Day 21 (±SEM) ([3]; tafasitamab 10 mg/kg IP BIW 3 weeks) | Tumor volume on Day 21 (±SEM) ([3]; tafasitamab 20 mg/kg IP BIW 3 weeks) |
| --- | --- | --- | --- | --- | --- | --- | --- | --- | --- | --- | --- | --- | --- | --- | --- | --- |
| Cc1sc(C(=O)c2cncnc2N[C@@H]2C[C@H](COS(N)(=O)=O)[C@@H](O)C2)cc1[C@@H]1NCCc2ccc(Cl)cc21 [Compound I-263a, [(1R,2S,4R)-4-{[5-({4-[(1R)-7-chloro-1,2,3,4-tetrahydroisoquinolin-1-yl]-5-methyl-2-thienyl}carbonyl)pyrimidin-4-yl]amino}-2-hydroxycyclopentyl]methyl sulfamate] | resulted in specific killing | elevated percentage of CD107+ NK cells | 14 | did not result in significant growth rate inhibition | 1410.7 ± 155.8 | do not show significant or extensive tumor growth inhibition | effectively phagocytosed | effectively phagocytosed |  |  |  |  |  |  |  |  |
| Tafasitamab: humanized monoclonal antibody that targets the antigen CD19, engineered in the IgG Fc-region to enhance ADCC; sequences in Table 1 | resulted in specific killing | elevated percentage of CD107+ NK cells |  |  |  | do not show significant or extensive tumor growth inhibition | effectively phagocytosed | effectively phagocytosed | 20 | 12 | did not result in significant growth rate inhibition | 2 | did not result in significant growth rate inhibition | 1197.3 ± 168.3 | 1494.3 ± 126.3 | 1519.0 ± 110.8 |

Reference: patent US20260130906A1, “THERAPY COMPRISING ANTI-CD19 ANTIBODY AND SUMO-ACTIVATING ENZYME INHIBITOR” (TAKEDA PHARMACEUTICAL COMPANY LIMITED, priority 2021, published 2026)
